In ChEMBL document CHEMBL1130993, “1,2-disubstituted cyclohexane derived tripeptide aldehydes as novel selective thrombin inhibitors” (Bioorg Med Chem Lett, 1998):

Experiments:
[1] = Compound was evaluated for IC50 ratio between human t-PA and thrombin
Prothrombin [2] = target: T1, Prothrombin (Homo sapiens, UniProt P00734); assay: Compound was evaluated for the inhibition of thrombin using the synthetic substrate chromozym TH
Prothrombin [3] = target: T1, Prothrombin; assay: Compound was evaluated for percent inhibition of thrombin using the synthetic substrate chromozym TH at 100 uM
[4] = Compound was evaluated for IC50 ratio between human plasmin and thrombin

Row | Selectivity [1] | IC50 (Prothrombin [2]) [µM] | inhibition (Prothrombin [3]) [%] | Selectivity [4] | SMILES
1 | 1000 | 4 | 100 | 38 | CNC(Cc1ccccc1)C(=O)N[C@@H]1CCCC[C@H]1C(=O)N[C@@H](C=O)CCCN=C(N)N (stereo partly drawn)
2 |  |  | 36 |  | CN(Cc1ccccc1)C(=O)C1CCCCC1C(=O)N[C@@H](C=O)CCCN=C(N)N (stereo partly drawn)
3 |  |  | 27 |  | CN(Cc1ccccc1)C(=O)[C@H]1CCCC[C@@H]1C(=O)N[C@@H](C=O)CCCN=C(N)N
4 |  |  | 8 |  | CN(Cc1ccccc1)C(=O)[C@@H]1CCCC[C@H]1C(=O)N[C@@H](C=O)CCCN=C(N)N
5 |  | 0.046 |  |  | CN[C@H](Cc1ccccc1)C(=O)N1CCC[C@H]1C(=O)N[C@H](C=O)CCCN=C(N)N [EFEGATRAN]
6 |  |  | 39 |  | CNC(Cc1ccccc1)C(=O)N[C@H]1CCCC[C@@H]1C(=O)N[C@@H](C=O)CCCN=C(N)N (stereo partly drawn)
7 |  |  | 15 |  | CN(CCc1ccccc1)C(=O)[C@H]1CCCC[C@@H]1C(=O)N[C@@H](C=O)CCCN=C(N)N
8 |  | 84 | 100 |  | CN(CCc1ccccc1)C(=O)C1CCCCC1C(=O)N[C@@H](C=O)CCCN=C(N)N (stereo partly drawn)
9 | 308 | 12 | 100 | 67 | CN(CCc1ccccc1)C(=O)[C@@H]1CCCC[C@@H]1C(=O)N[C@@H](C=O)CCCN=C(N)N
10 |  |  | 6 |  | CNC(Cc1ccccc1)C(=O)N[C@H]1CCCC[C@H]1C(=O)N[C@@H](C=O)CCCN=C(N)N (stereo partly drawn)
11 |  |  | 1 |  | CNC(Cc1ccccc1)C(=O)N[C@@H]1CCCC[C@@H]1C(=O)N[C@@H](C=O)CCCN=C(N)N (stereo partly drawn)
12 |  |  | 14 |  | CN(CCc1ccccc1)C(=O)[C@@H]1CCCC[C@H]1C(=O)N[C@@H](C=O)CCCN=C(N)N
13 |  |  |  | 413 | CN[C@H](Cc1ccccc1)C(=O)N1CCC[C@H]1C(=O)N[C@H](C=O)CCCNC(=N)N

Row | SMILES | Selectivity [1] | IC50 (Prothrombin [2]) [µM] | inhibition (Prothrombin [3]) [%] | Selectivity [4]
14 | CNC(Cc1ccc2ccccc2c1)C(=O)N[C@H]1CCCC[C@H]1C(=O)N[C@@H](C=O)CCCN=C(N)N (stereo partly drawn) | > 5000 | 0.022 |  | 4540
